The values that follow come from patent US9271971B2, “Pyrido[3,4-B]indoles and methods of use” (Medivation Technologies, Inc., priority 2009, dated 2016).

Test [1] deals with T1, rat adrenergic α1B receptor (Rattus norvegicus, UniProt P15823).
T1 construct: rat adrenergic α1B receptor obtained from Wistar Rat liver; from tissue; host or cells: Wistar Rat liver
T1 sequence (P15823 1-515): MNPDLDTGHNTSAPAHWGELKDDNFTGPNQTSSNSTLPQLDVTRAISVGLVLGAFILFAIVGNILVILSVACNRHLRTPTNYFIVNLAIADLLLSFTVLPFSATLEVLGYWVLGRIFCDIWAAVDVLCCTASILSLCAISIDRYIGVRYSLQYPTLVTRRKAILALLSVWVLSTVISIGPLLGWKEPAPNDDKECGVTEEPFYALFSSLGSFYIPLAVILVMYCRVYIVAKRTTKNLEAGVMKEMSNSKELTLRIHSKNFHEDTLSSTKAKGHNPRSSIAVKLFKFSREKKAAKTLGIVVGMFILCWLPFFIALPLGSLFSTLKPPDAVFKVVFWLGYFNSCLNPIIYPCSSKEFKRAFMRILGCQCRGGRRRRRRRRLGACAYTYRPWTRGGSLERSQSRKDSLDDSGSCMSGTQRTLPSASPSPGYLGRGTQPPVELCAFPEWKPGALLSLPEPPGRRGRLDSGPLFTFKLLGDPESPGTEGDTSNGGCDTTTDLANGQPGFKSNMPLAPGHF
In words: Adrenergic α1B radioligand binding assay. To be noted: [3H]Prozosin specific binding, read-out: Percent Inhibition of ligand binding, Adrenergic (0.1 μM ligand conc.) α1B. On the procedure: To evaluate in radioligand binding assays the activity of compounds of the invention, rat adrenergic α1B receptor obtained from Wistar Rat liver [Garcia-S′ainz, J. A. et al., Biochem. Biophys. Res. Commun. (1992), 186:760; Michel, A. D. et al., Br. J. Pharmacol. (1989), 98:883] in a modified Tris-HCl buffer (50 mM Tris-HCl buffer, pH 7.4, 0.5 mM EDTA) was used. Compounds of the invention were incubated with 0.25 nM [^3H]Prozosin for 60 min. at 25° C. Non-specific binding was estimated in the presence of 10 μM phentolamine. Receptor proteins were filtered and washed, the filters were then counted to determine [^3H]Prozosin specifically bound. Compounds were screened at 1 μM or lower, using 1% DMSO as vehicle. Compounds of the invention were tested in this biochemical assay. Biochemical assay results for representative compounds were presented as the percent inhibition of specific binding in Table 3.

The target in test [2] is human recombinant histamine H1 receptor (Homo sapiens, UniProt P35367). Description: Histamine H1 radioligand binding assay. The note with it: [3H]Pyrilamine specific binding; for inhibition at 1 µM: read-out: Percentage Inhibition, Histamine Binding (1 μM) H1. On the procedure: To evaluate in radioligand binding assays the activity of compounds of the invention, human recombinant histamine H1 receptor expressed in Chinese hamster ovary (CHO) cells [De Backer, M. D. et al., Biochem. Biophys. Res. Comm. (1993), 197(3):1601] in a modified Tris-HCl buffer (50 mM Tris-HCl, pH 7.4, 2 mM MgCl2, 100 mM NaCl, 250 mM Sucrose) was used. Compounds of the invention were incubated with 1.2 nM [^3H]Pyrilamine for 180 min. at 25° C. Non-specific binding was estimated in the presence of 1 μM pyrilamine. Receptor proteins were filtered and washed, the filters were then counted to determine [^3H]Pyrilamine specifically bound. Compounds were screened at 1 μM or lower, using 1% DMSO as vehicle. Biochemical assay results are presented as the percent inhibition of specific binding in Table 2.
Sequence of human recombinant histamine H1 receptor (P35367 whole entry): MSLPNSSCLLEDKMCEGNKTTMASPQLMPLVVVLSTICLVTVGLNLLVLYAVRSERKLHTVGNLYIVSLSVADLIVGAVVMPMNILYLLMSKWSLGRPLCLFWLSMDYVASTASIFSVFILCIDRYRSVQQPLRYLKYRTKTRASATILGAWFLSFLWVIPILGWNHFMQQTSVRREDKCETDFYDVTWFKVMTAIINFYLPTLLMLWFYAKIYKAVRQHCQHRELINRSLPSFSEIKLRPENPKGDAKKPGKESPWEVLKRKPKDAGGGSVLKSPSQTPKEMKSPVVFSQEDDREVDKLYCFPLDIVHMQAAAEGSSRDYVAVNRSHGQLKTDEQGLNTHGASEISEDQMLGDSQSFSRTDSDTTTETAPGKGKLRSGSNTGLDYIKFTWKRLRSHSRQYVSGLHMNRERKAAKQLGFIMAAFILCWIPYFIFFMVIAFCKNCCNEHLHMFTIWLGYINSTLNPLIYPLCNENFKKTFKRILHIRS

The target in test [3] is human recombinant serotonin (5-Hydroxytryptamine) 5-HT7 receptor (Homo sapiens, UniProt P34969). In words: Serotonin 5-HT7 radioligand binding assay. To be noted: [3H]LSD specific binding, read-out: Percent Inhibition of ligand binding, Serotonin (1 μM ligand concentration) 5-HT7. On the procedure: To evaluate in radioligand binding assays the activity of compounds of the invention, human recombinant serotonin (5-Hydroxytryptamine) 5-HT7 receptor expressed in Chinese hamster ovary (CHO) cells [Roth, B. L. et al., J. Pharmacol. Exp. Ther. (1994), 268:1403; Shen, Y. et al., J. Biol. Chem. (1993), 268:18200] in a modified Tris-HCl buffer (50 mM Tris-HCl, pH 7.4, 10 mM MgCl2, 0.5 mM EDTA) was used. Compounds of invention were incubated with 5.5 nM [^3H] Lysergic acid diethylamide (LSD) for 2 h at 25° C. Non-specific binding was estimated in the presence of 10 μM Serotonin (5-HT). Receptor proteins were filtered and washed, the filters were then counted to determine [^3H]LSD specifically bound. Compounds were screened at 1 μM or lower, using 1% DMSO as vehicle. Biochemical assay results are presented as the percent inhibition of specific binding in Table 4.
Sequence of human recombinant serotonin (5-Hydroxytryptamine) 5-HT7 receptor (P34969 whole entry): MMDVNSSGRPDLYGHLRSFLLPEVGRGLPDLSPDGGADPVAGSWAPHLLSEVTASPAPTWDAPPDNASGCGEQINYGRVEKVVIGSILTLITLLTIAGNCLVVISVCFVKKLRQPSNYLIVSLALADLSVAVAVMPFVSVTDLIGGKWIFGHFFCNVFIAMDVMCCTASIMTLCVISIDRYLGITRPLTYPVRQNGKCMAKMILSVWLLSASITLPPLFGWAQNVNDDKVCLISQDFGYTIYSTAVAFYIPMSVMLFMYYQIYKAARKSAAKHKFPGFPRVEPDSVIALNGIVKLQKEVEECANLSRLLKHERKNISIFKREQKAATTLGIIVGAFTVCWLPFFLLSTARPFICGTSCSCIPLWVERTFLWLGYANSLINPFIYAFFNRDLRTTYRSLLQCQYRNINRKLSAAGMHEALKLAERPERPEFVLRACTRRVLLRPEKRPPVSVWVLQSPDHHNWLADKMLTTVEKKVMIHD

For test [4], the target named is T2, human recombinant adrenergic α2C receptor (Homo sapiens, UniProt P18825).
T2 construct: expressed in transfected cells; host or cells: insect Sf9 cells
T2 sequence (P18825 1-462): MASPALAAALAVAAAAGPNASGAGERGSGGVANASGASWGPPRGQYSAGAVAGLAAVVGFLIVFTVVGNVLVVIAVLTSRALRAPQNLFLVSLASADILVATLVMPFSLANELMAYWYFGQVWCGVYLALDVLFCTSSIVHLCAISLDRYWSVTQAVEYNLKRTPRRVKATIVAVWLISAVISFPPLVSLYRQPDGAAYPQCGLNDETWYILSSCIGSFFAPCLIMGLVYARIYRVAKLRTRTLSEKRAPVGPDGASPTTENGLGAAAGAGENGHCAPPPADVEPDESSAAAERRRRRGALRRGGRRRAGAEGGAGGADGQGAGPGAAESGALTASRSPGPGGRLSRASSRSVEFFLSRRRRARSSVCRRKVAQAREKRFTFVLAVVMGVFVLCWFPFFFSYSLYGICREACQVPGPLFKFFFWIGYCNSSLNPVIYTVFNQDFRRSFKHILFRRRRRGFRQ
In words: Adrenergic α2C radioligand binding assay. The note with it: [3H]MK-912 specific binding, read-out: Percent Inhibition of ligand binding, Adrenergic (0.1 μM ligand conc.) α2C. Here is the method: To evaluate in radioligand binding assays the activity of compounds of the invention, human recombinant adrenergic α2C receptor expressed in insect Sf9 cells [Uhlen, S et al., J. Pharmacol. Exp. Ther. (1994), 271:1558] in a modified Tris-HCl buffer (50 mM Tris-HCl, pH 7.4, 12.5 mM MgCl2, 2 mM EDTA) was used. Compounds of the invention were incubated with 1 nM [^3H]MK-912 for 60 min. at 25° C. Non-specific binding was estimated in the presence of 10 μM WB-4101. Receptor proteins were filtered and washed, the filters were then counted to determine [^3H]MK-912 specifically bound. Compounds were screened at 1 μM or lower, using 1% DMSO as vehicle. Compounds of the invention were tested in this biochemical assay. Biochemical assay results for representative compounds were presented as the percent inhibition of specific binding in Table 3.

In the case of `Cc1ccc2c(c1)c1c(n2C(=O)Cc2ccc(Cl)cc2)CN2CCC1C2` (stereo not drawn) [Compound 36], the inhibition at 0.1 µM in test [1] turned out to be 4%; in test [4], 24%. Moreover, the inhibition at 1 µM in test [2] worked out at 45%; in test [3], 75%.

In the case of `C/C(=C\n1c2c(c3cc(C)ccc31)C1CCN(C2)C1)c1ccncc1` (stereo not drawn) [Compound 44], the inhibition at 0.1 µM was 4% in test [1] and 7% in test [4]. Also, the inhibition at 1 µM stood at 23% in test [2] and 80% in test [3].

Take `COc1ccc(/C(C)=C/n2c3c(c4cc(C)ccc42)C2CCN(C3)C2)cc1` (stereo not drawn) [Compound 45]: the inhibition at 0.1 µM came to 20% in test [1] and 3% in test [4]. Further, the figures for the inhibition at 1 µM in test [2] and in test [3] were 26% and 93%, respectively.

Turning to `C/C(=C\n1c2c(c3cc(C)ccc31)C1CCN(C2)C1)c1ccc(Cl)cc1Cl` (stereo not drawn) [Compound 33], the inhibition at 0.1 µM in test [1] came out at 28%; in test [4] it was 16%. Also, the “Percentage Inhibition, Histamine Binding (1 μM) H1” value in test [2] (1 µM) is given as 76%. Further, in test [3], the inhibition at 1 µM came to 96%.

As for `C/C(=C\n1c2c(c3cc(C)ccc31)C1CCN(C2)C1)c1ccc(Cl)cc1` (stereo not drawn) [Compound 32], the inhibition at 0.1 µM in test [1] was found to be 67%; in test [4], 39%. The inhibition at 1 µM was found to be 85% in test [2] and 96% in test [3].

With `C/C(=C\n1c2c(c3cc(C)ccc31)C1CCN(C2)C1)c1ccccc1F` (stereo not drawn) [Compound 38], the inhibition at 0.1 µM turned out to be 29% in test [1] and 13% in test [4]. For the same molecule, the figures for the inhibition at 1 µM in test [2] and in test [3] were 38% and 95%, respectively.
